Patent publication US6696447B2, “Hydroxyphenyl-piperazinyl-methyl-benzamide derivatives for the treatment of pain” (AstraZeneca AB, priority 2000, dated 2004)

Tests used:
Format in all cases: biochemical
[1] = target: T1, delta receptors, mouse brain membranes (Mus musculus, UniProt P32300); test: GTP[γ]35S binding functional assay, homogenised mouse brain
T1 construct: from tissue; host or cells: mouse brain homogenate
Description: (§1) B. Mouse and rat brains were weighed and rinsed in ice-cold PBS (containing 2.5 mM EDTA, pH 7.4). The brains were homogenized with a polytron for 15 sec (mouse) or 30 sec (rat) in ice-cold lysis buffer (50 mM Tris, pH 7.0, 2.5 mM EDTA, with phenylmethylsulfonyl fluoride added just prior use to […] from a 0.5M stock in DMSO:ethanol).
(§2) The agonist activity of the compounds is measured by determining the degree to which the compounds receptor complex activates the binding of GTP to G-proteins to which the receptors are coupled. In the GTP binding assay, GTP[γ]^35S is combined with test compounds and membranes from HEK-293S cells expressing the cloned human opioid receptors or from homogenised rat and mouse brain. Agonists stimulate GTP[γ]^35 S binding in these membranes. The EC50 and Emax values of compounds are determined from dose-response curves. Right shifts of the dose response curve by the delta antagonist naltrindole are performed to verify that agonist activity is mediated through delta receptors.

[2] = target: T2, human δ receptor (HDELTA) (Homo sapiens, UniProt P41143); test: GTP[γ]35S binding functional assay, HEK-293S membranes expressing cloned human opioid receptor (HDELTA)
T2 construct: expressed in transfected cells; host or cells: human 293S (HEK-293S) cells, geneticin-selected
Description: A. Human 293S cells expressing cloned human μ, δ, and κ receptors and neomycin resistance were grown in suspension at 37° C. and 5% CO2 in shaker flasks containing calcium-free DMEM10% FBS, 5% BCS, 0.1% Pluronic F-68, and 600 μg/ml geneticin.
Cells were pelleted and resuspended in lysis buffer (50 mM Tris, pH 7.0, 2.5 mM EDTA, with PMSF added just prior to use to 0.1 mM from a 0.1 M stock in ethanol), incubated on ice for 15 min, then homogenized with a polytron for 30 sec. The suspension was spun at 1000 g (max) for 10 min at 4° C. The supernatant was saved on ice and the pellets resuspended and spun as before. The supernatants from both spins were combined and spun at 46,000 g(max) for 30 min. The pellets were resuspended in cold Tris buffer (50 mM Tris/Ci, pH 7.0) and spun again. The final pellets were resuspended in membrane buffer (50 mM Tris, 0.32 M sucrose, pH 7.0). Aliquots (1 ml) in polypropylene tubes were frozen in dry ice/ethanol and stored at −70° C. until use. The protein concentrations were determined by a modified Lowry assay with sodium dodecyl sulfate.
as §2

[3] = target: T3, delta receptors, rat brain membranes (Rattus norvegicus, UniProt P33533); test: GTP[γ]35S binding functional assay, homogenised rat brain
T3 construct: from tissue; host or cells: rat brain homogenate
Description: as §1, §2

T3 sequence (P33533 whole entry): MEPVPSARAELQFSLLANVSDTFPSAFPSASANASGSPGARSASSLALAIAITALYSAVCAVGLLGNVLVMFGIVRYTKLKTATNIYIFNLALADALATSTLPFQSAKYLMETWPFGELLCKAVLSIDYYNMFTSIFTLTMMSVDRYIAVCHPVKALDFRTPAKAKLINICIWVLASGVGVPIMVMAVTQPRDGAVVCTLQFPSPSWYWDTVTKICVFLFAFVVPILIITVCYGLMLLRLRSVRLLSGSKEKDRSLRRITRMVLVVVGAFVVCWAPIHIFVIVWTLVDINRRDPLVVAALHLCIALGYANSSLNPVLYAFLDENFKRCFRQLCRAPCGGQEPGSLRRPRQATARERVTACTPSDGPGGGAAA
T2 sequence (P41143 whole entry): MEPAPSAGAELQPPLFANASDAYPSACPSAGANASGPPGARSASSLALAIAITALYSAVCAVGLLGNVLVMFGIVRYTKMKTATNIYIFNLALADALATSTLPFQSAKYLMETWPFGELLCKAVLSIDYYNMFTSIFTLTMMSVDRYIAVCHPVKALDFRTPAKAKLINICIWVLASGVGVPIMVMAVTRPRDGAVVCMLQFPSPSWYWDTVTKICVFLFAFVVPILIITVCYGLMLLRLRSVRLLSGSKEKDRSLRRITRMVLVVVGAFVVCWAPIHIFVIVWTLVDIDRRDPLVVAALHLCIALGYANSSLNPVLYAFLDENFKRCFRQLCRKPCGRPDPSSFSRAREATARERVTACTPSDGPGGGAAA
T1 sequence (P32300 whole entry): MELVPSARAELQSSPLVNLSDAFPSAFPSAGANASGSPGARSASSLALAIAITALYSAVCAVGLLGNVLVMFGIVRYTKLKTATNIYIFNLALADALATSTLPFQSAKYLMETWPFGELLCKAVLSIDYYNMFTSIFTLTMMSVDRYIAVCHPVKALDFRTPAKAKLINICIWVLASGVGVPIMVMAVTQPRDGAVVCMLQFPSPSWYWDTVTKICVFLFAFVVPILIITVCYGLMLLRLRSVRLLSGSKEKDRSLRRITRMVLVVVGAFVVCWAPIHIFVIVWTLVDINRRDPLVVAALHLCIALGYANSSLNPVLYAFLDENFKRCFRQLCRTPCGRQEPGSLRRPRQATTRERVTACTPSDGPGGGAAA

| SMILES | Emax [1] [%] | Emax [2] [%] | Emax [3] [%] |
| --- | --- | --- | --- |
| CCN(CC)C(=O)c1ccc(C(c2cccc(O)c2)N2CCN(Cc3ccsc3)CC2)cc1 (stereo not drawn) [Example 3, N,N-diethyl-4-{(3-hydroxyphenyl)[4-(3-thienylmethyl)-1-piperazinyl]methyl}benzamide] | 122 | 114 | 128 |
| CCN(CC)C(=O)c1ccc(C(c2cccc(O)c2)N2CCN(Cc3ccco3)CC2)cc1 (stereo not drawn) [Example 1, N,N-diethyl-4-[[4-(2-furylmethyl)-1-piperazinyl](3-hydroxyphenyl)methyl]benzamide] | 113 | 94.8 | 130 |
| CCN(CC)C(=O)c1ccc(C(c2cccc(O)c2)N2CCN(Cc3cccs3)CC2)cc1 (stereo not drawn) [Example 2, N,N-diethyl-4-{(3-hydroxyphenyl)[4-(2-thienylmethyl)-1-piperazinyl]methyl}benzamide] | 118 | 105 | 120 |
